Here are results for 23 compounds from patent publication US20100286136A1, “DIHYDRONAPHTHYRIDINYL AND RELATED COMPOUNDS FOR USE IN TREATING OPHTHALMOLOGICAL DISORDERS” (priority 2009, published 2010).

Where only a bound is given, the exact number is not on record here.

The test addresses T1, CCR2b (Homo sapiens, UniProt P41597).
T1 construct: host or cells: AequoScreen CCR2b cells
T1 sequence (P41597 1-360 isoform P41597-2): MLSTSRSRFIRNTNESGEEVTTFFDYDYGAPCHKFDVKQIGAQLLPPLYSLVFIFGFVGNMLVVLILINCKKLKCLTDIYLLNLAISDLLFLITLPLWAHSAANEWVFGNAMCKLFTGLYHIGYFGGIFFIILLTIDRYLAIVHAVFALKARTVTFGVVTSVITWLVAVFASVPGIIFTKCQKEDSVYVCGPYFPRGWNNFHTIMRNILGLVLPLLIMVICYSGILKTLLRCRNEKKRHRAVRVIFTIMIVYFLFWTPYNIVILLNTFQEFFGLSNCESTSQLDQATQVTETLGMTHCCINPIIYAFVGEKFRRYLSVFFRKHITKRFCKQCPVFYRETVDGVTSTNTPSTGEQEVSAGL
Description: AequoScreen CCR2b calcium flux assay, antagonist mode against reference agonist MCP-1. It counts as cell-based. The note with it: AequoScreen CCR2b (FAST-060A) cells; inhibition of reference agonist MCP-1 at its EC80; read-out: IC50 (μM) Ca^++flux. On the procedure:
The biological activity of the compounds described herein can be evaluated using assays known in the art, such as the AequoScreen™ assay.
AequoScreen™ CCR2b (FAST-060A) cells grown to mid-log phase in culture media without antibiotics are detached with PBS-EDTA, centrifuged and resuspended in assay buffer (DMEM/HAM's F12 with HEPES, without phenol red+0.1% BSA protease free) at a concentration of 1×10^6 cells/mL. Cells are incubated at room temperature for at least 4 hours with coelenterazine h. Dose response curves are performed before testing. The reference agonist is MCP-1.
For agonist testing, 50 μL of cell suspension is mixed with 50 μL of test compound in a 96-well plate. The resulting emission of light is recorded using a Hamamatsu Functional Drug Screening System 6000 (FDSS 6000).
Following an incubation of 15 minutes after the first injection, 100 μL of the resulting cell suspension containing the test compound is mixed with 100 μL of the reference agonist in the 96 well test plate. The resulting emission of light is recorded using the same luminometer as for agonist testing.
Agonist activity of a test compound can be expressed as a percentage of the activity of the reference agonist at its EC100 concentration. Antagonist activity of a test compound can be expressed as a percentage of the inhibition of reference agonist activity at its EC80 concentration.
In general terms: Calcium assays in cells follow changes in intracellular calcium, usually with a dye or a luminescent sensor.
On to `COCC1(C(=O)N2CCc3ncc(C(F)(F)F)cc3C2)CCN(C2CCC(c3ccc(OC)nc3)CC2)C1` (single isomer, unassigned) [Example 50, 51 (Isomer II), (3-(Methoxymethyl)-1-(4-(6-methoxypyridin-3-yl)cyclohexyl)pyrrolidin-3-yl)(3-(trifluoromethyl)-7,8-dihydro-1,6-naphthyridin-6(5H)-yl)methanone], for which the IC50 was less than 0.2 µM.
With `CC(C)C1(C(=O)N2CCc3ncc(C(F)(F)F)cc3C2)CCN(Cc2ccc3oc(=O)n(C)c3c2)C1` (centres unmarked) [Example 47, 5-((3-isopropyl-3-(3-(trifluoromethyl)-5,6,7,8-tetrahydro-1,6-naphthyridine-6-carbonyl)pyrrolidin-1-yl)methyl)-3-methylbenzo[d]oxazol-2(3H)-one], the half-inhibitory concentration (IC50) was less than 0.2 µM.
As for `COc1cc(CN2CCC(CC3CC3)(C(=O)N3CCc4ncc(C(F)(F)F)cc4C3)C2)ccc1O` (centres unmarked) [Example 6, (1-(4-Hydroxy-3-methoxybenzyl)-3-(cyclopropylmethyl)pyrrolidin-3-yl)(3-(trifluoromethyl)-7,8-dihydro-1,6-naphthyridin-6(5H)-yl)methanone], the figure is 0.2 to 1 µM; as for `Cn1c(=O)ccc2ccc(CN3CCC(CC4CC4)(C(=O)N4CCc5ncc(C(F)(F)F)cc5C4)C3)cc21` (single isomer, unassigned) [Example 4, 5 (Enantiomer II)], less than 0.2 µM.
With `CCOCC1(C(=O)N2CCc3ncc(C(F)(F)F)cc3C2)CCN(Cc2ccc3oc(=O)n(C)c3c2)C1` (centres unmarked) [Example 45, 5-((3-(Ethoxymethyl)-3-(3-(trifluoromethyl)-5,6,7,8-tetrahydro-1,6-naphthyridine-6-carbonyl)pyrrolidin-1-yl)methyl)-3-methylbenzo[d]oxazol-2(3H)-one] the figure was less than 0.2 µM.
Consider `Cn1c(=O)sc2ccc(CN3CCC(CC4CC4)(C(=O)N4CCc5ncc(C(F)(F)F)cc5C4)C3)cc21` (centres unmarked) [Example 11, 5-((3-(Cyclopropylmethyl)-3-(3-(trifluoromethyl)-5,6,7,8-tetrahydro-1,6-naphthyridine-6-carbonyl)pyrrolidin-1-yl)methyl)-3-methylbenzo[d]thiazol-2(3H)-one], for which the IC50 was less than 0.2 µM.
For the compound `COCC1(C(=O)N2CCc3ncc(C(F)(F)F)cc3C2)CCN(Cc2ccc3c(c2)n(C)c(=O)n3C)C1` (centres unmarked) [Example 38, 5-((3-(Methoxymethyl)-3-(3-(trifluoromethyl)-5,6,7,8-tetrahydro-1,6-naphthyridine-6-carbonyl)pyrrolidin-1-yl)methyl)-1,3-dimethyl-1H-benzo[d]imidazol-2(3H)-one], the IC50 is greater than 1 µM.
`COCC1(C(=O)N2CCc3ncc(C(F)(F)F)cc3C2)CCN(Cc2ccc3c(c2)N(C)C(=O)CO3)C1` (centres unmarked) [Example 32, 6-((3-(Methoxymethyl)-3-(3-(trifluoromethyl)-5,6,7,8-tetrahydro-1,6-naphthyridine-6-carbonyl)pyrrolidin-1-yl)methyl)-4-methyl-2H-benzo[b][1,4]oxazin-3(4H)-one]: the IC50 is less than 0.2 µM.
With `Cn1c(=O)oc2ccc(CN3CCC(CO)(C(=O)N4CCc5ncc(C(F)(F)F)cc5C4)C3)cc21` (centres unmarked) [Example 49, 5-((3-(Hydroxymethyl)-3-(3-(trifluoromethyl)-5,6,7,8-tetrahydro-1,6-naphthyridine-6-carbonyl)pyrrolidin-1-yl)methyl)-3-methylbenzo[d]oxazol-2(3H)-one] the figure was greater than 1 µM.
Regarding `COCC1(C(=O)N2CCc3ncc(C(F)(F)F)cc3C2)CCN(Cc2ccc3oc(=O)n(C)c3c2)C1` (single isomer, unassigned) [Example 40, 41 (Enantiomer I)], the IC50 is less than 0.2 µM.
Consider `COCC1(C(=O)N2CCc3ccc(C(F)(F)F)cc3C2)CCN(Cc2ccc3oc(=O)n(C)c3c2)C1` (centres unmarked) [Example 46, 5-((3-(methoxymethyl)-3-(7-(trifluoromethyl)-1,2,3,4-tetrahydroisoquinoline-2-carbonyl)pyrrolidin-1-yl)methyl)-3-methylbenzo[d]oxazol-2(3H)-one], for which the IC50 is less than 0.2 µM.
Turning to `Cn1c(=O)ccc2ccc(CN3CCC(CC4CC4)(C(=O)N4CCc5ncc(C(F)(F)F)cc5C4)C3)cc21` (single isomer, unassigned) [Example 4, 5 (Enantiomer I)], the IC50 is less than 0.2 µM.
As for `COCC1(C(=O)N2CCc3ncc(C(F)(F)F)cc3C2)CCN(Cc2ccc3ccc(=O)n(C)c3c2)C1` (centres unmarked) [Example 25, 7-((3-(Methoxymethyl)-3-(3-(trifluoromethyl)-5,6,7,8-tetrahydro-1,6-naphthyridine-6-carbonyl)pyrrolidin-1-yl)methyl)-1-methylquinolin-2(1H)-one], the figure is less than 0.2 µM.
With `COCC1(C(=O)N2CCc3ncc(C(F)(F)F)cc3C2)CCN(C2CCC(O)(c3ccc(OC)nc3)CC2)C1` (single isomer, unassigned) [Example 30, 31 (Isomer II), (1-(4-Hydroxy-4-(6-methoxypyridin-3-yl)cyclohexyl)-3-(methoxymethyl)pyrrolidin-3-yl)(3-(trifluoromethyl)-7,8-dihydro-1,6-naphthyridin-6(5H)-yl)methanone] the figure was greater than 1 µM; with `CC1(C)CC(CN2CCC(CC3CC3)(C(=O)N3CCc4ncc(C(F)(F)F)cc4C3)C2)CCO1` (centres unmarked) [Example 9, (3-(Cyclopropylmethyl)-1-((2,2-dimethyltetrahydro-2H-pyran-4-yl)methyl)pyrrolidin-3-yl)(3-(trifluoromethyl)-7,8-dihydro-1,6-naphthyridin-6(5H)-yl)methanone], 0.2 to 1 µM; with `Cn1c(=O)ccc2cc(CN3CCC(CC4CC4)(C(=O)N4CCc5ncc(C(F)(F)F)cc5C4)C3)ccc21` (centres unmarked) [Example 22, 6-((3-(Cyclopropylmethyl)-3-(3-(trifluoromethyl)-5,6,7,8-tetrahydro-1,6-naphthyridine-6-carbonyl)pyrrolidin-1-yl)methyl)-1-methylquinolin-2(1H)-one], greater than 1 µM.
Regarding `COCC1(C(=O)N2CCc3ncc(C(F)(F)F)cc3C2)CCN(Cc2cc3c(cc2Cl)oc(=O)n3C)C1` (centres unmarked) [Example 37, 6-Chloro-5-((3-(methoxymethyl)-3-(3-(trifluoromethyl)-5,6,7,8-tetrahydro-1,6-naphthyridine-6-carbonyl)pyrrolidin-1-yl)methyl)-3-methylbenzo[d]oxazol-2(3H)-one], the IC50 was less than 0.2 µM.
On to `COCC1(C(=O)N2CCc3ncc(C(F)(F)F)cc3C2)CCN(C2CCC(c3cncnc3)CC2)C1` (single isomer, unassigned) [Example 54, 55 (Isomer II), (3-(Methoxymethyl)-1-(4-(pyrimidin-5-yl)cyclohexyl)pyrrolidin-3-yl)(3-(trifluoromethyl)-7,8-dihydro-1,6-naphthyridin-6(5H)-yl)methanone], for which the IC50 lay in the range of 0.2 to 1 µM.
With `O=C(N1CCc2ncc(C(F)(F)F)cc2C1)C1(CC2CC2)CCN(Cc2ccc3ccc(=O)[nH]c3c2)C1` (centres unmarked) [Example 15, 7-((3-(Cyclopropylmethyl)-3-(3-(trifluoromethyl)-5,6,7,8-tetrahydro-1,6-naphthyridin-6-carbonyl)pyrrolidin-1-yl)methyl)quinolin-2(1H)-one], the IC50 was greater than 1 µM.
Take `COCC1(C(=O)N2CCc3ncc(C(F)(F)F)cc3C2)CCN(Cc2ccc3ccc(=O)n(C)c3c2)C1` (single isomer, unassigned) [Example 26, 27 (Enantiomer I)]: the IC50 was less than 0.2 µM.
As for `COCC1(C(=O)N2CCc3ncc(C(F)(F)F)cc3C2)CCN(Cc2ccc3oc(=O)n(C)c3c2)C1` (centres unmarked) [Example 39, 5-((3-(Methoxymethyl)-3-(3-(trifluoromethyl)-5,6,7,8-tetrahydro-1,6-naphthyridine-6-carbonyl)pyrrolidin-1-yl)methyl)-3-methylbenzo[d]oxazol-2(3H)-one], the IC50 is less than 0.2 µM.
Regarding `CC(C)CC1(C(=O)N2CCc3ncc(C(F)(F)F)cc3C2)CCN(Cc2ccc3oc(=O)n(C)c3c2)C1` (centres unmarked) [Example 24, 5-((3-Isobutyl-3-(3-(trifluoromethyl)-5,6,7,8-tetrahydro-1,6-naphthyridine-6-carbonyl)pyrrolidin-1-yl)methyl)-3-methylbenzo[d]oxazol-2(3H)-one], the IC50 was less than 0.2 µM.
As for `Cn1c(=O)oc2ccc(CN3CCC(CC4CC4)(C(=O)N4CCc5ncc(C(F)(F)F)cc5C4)C3)cc21` (centres unmarked) [Example 23, 5-((3-(Cyclopropylmethyl)-3-(3-(trifluoromethyl)-5,6,7,8-tetrahydro-1,6-naphthyridine-6-carbonyl)pyrrolidin-1-yl)methyl)-3-methylbenzo[d]oxazol-2(3H)-one], the figure is less than 0.2 µM.

The term IC50 denotes the concentration at which inhibition is half-maximal.
